Literature values as cited in patent publication US20050003003A1, “Modulation of release from dry powder formulations” (Advanced Inhalation Research, Inc., priority 1999, published 2005).

Conditions: Table 1, phospholipids with low transition temperatures

Row | Compound | Transition Temperature
1 | CCCCCCCCCCCCCCCCCC(=O)O[C@H](COC(=O)CCCCCCCCCCCCC)COP(=O)([O-])OCC[N+](C)(C)C [1-Myristoyl-2-stearoyl-sn-glycero-3-phosphocholine] | 40 °C
2 | CCCCCCCCCCCCCC(=O)OC[C@H](COP(=O)(O)OC[C@H](N)C(=O)O)OC(=O)CCCCCCCCCCCCC [1,2-Dimyristoyl-sn-glycero-3-[phospho-L-serine]] | 35 °C
3 | CCCCCCCCCCCCC(=O)OC[C@H](COP(=O)([O-])OCC[N+](C)(C)C)OC(=O)CCCCCCCCCCCC [1,2-Ditridecanoyl-sn-glycero-3-phosphocholine] | 14 °C
4 | CCCCCCCCCCCC(=O)OC[C@H](COP(=O)(O)OCCN)OC(=O)CCCCCCCCCCC [DLPE, 1,2-Dilauroyl-sn-glycero-3-phosphoethanolamine] | 29 °C
5 | CCCCCCCCCCCCCCC(=O)OC[C@H](COP(=O)([O-])OCC[N+](C)(C)C)OC(=O)CCCCCCCCCCCCCC [1,2-Dipentadecanoyl-sn-glycero-3-phosphocholine] | 33 °C
6 | CCCCCCCCCCCCCCCC(=O)OC[C@H](COP(=O)([O-])OCC[N+](C)(C)C)OC(=O)CCCCCCCCCCCCC [1-Palmitoyl-2-myristoyl-sn-glycero-3-phosphocholine] | 27 °C
7 | CCCCCCCCCCCC(=O)OC[C@H](COP(=O)([O-])OCC[N+](C)(C)C)OC(=O)CCCCCCCCCCC [DLPC, 1,2-Dilauroyl-sn-glycero-3-phosphocholine] | −1 °C
8 | CCCCCCCCCCCCCCCC(=O)O[C@H](COC(=O)CCCCCCCCCCCCC)COP(=O)([O-])OCC[N+](C)(C)C [1-Myristoyl-2-palmitoyl-sn-glycero-3-phosphocholine] | 35 °C

The remaining lines, values ahead:

Row | Transition Temperature | Compound
9 | 23 °C | CCCCCCCCCCCCCC(=O)OC[C@H](COP(=O)([O-])OCC[N+](C)(C)C)OC(=O)CCCCCCCCCCCCC [DMPC, 1,2-Dimyristoyl-sn-glycero-3-phosphocholine]
10 | 31 °C | CCCCCCCCCCCC(=O)OC[C@H](COP(=O)(O)O)OC(=O)CCCCCCCCCCC [DLPA, 1,2-Dilauroyl-sn-glycero-3-phosphate]
11 | 23 °C | CCCCCCCCCCCCCC(=O)OC[C@H](COP(=O)(O)OCC(O)CO)OC(=O)CCCCCCCCCCCCC (mixture of isomers) [DMPG, 1,2-Dimyristoyl-sn-glycero-3-[phospho-rac-(1-glycerol)]]
12 | 30 °C | CCCCCCCCCCCCCCCCCC(=O)OC[C@H](COP(=O)([O-])OCC[N+](C)(C)C)OC(=O)CCCCCCCCCCCCC [1-Stearoyl-2-myristoyl-sn-glycero-3-phosphocholine]
13 | 41 °C | CCCCCCCCCCCCCCCC(=O)OC[C@H](COP(=O)(O)OCC(O)CO)OC(=O)CCCCCCCCCCCCCCC (mixture of isomers) [DPPG, 1,2-Dipalmitoyl-sn-glycero-3-[phospho-rac-(1-glycerol)]]
14 | 41 °C | CCCCCCCCCCCCCCCC(=O)OC[C@H](COP(=O)([O-])OCC[N+](C)(C)C)OC(=O)CCCCCCCCCCCCCCC [DPPC, 1,2-Dipalmitoyl-sn-glycero-3-phosphocholine]

Same assay, conditions: Table 2, phospholipids with high transition temperatures

Row | Compound | Transition Temperature
15 | CCCCCCCCCCCCCCCC(=O)OC[C@H](COP(=O)(O)OCCN)OC(=O)CCCCCCCCCCCCCCC [DPPE, 1,2-Dipalmitoyl-sn-glycero-3-phosphoethanolamine] | 63 °C
16 | CCCCCCCCCCCCCCCCCC(=O)OC[C@H](COP(=O)(O)OC[C@H](N)C(=O)O)OC(=O)CCCCCCCCCCCCCCCCC [1,2-Distearoyl-sn-glycero-3-[phospho-L-serine]] | 68 °C
17 | CCCCCCCCCCCCCCCC(=O)OC[C@H](COP(=O)(O)OC[C@H](N)C(=O)O)OC(=O)CCCCCCCCCCCCCCC [1,2-Dipalmitoyl-sn-glycero-3-[phospho-L-serine]] | 54 °C
18 | CCCCCCCCCCCCCC(=O)OC[C@H](COP(=O)(O)OCCN)OC(=O)CCCCCCCCCCCCC [DMPE, 1,2-Dimyristoyl-sn-glycero-3-phosphoethanolamine] | 50 °C
19 | CCCCCCCCCCCCCCCCC(=O)OC[C@H](COP(=O)([O-])OCC[N+](C)(C)C)OC(=O)CCCCCCCCCCCCCCCC [1,2-Diheptadecanoyl-sn-glycero-3-phosphocholine] | 48 °C

Continued, values first:

Row | Transition Temperature | Compound
20 | 55 °C | CCCCCCCCCCCCCCCCCC(=O)OC[C@H](COP(=O)([O-])OCC[N+](C)(C)C)OC(=O)CCCCCCCCCCCCCCCCC [DSPC, 1,2-Distearoyl-sn-glycero-3-phosphocholine]
21 | 74 °C | CCCCCCCCCCCCCCCCCC(=O)OC[C@H](COP(=O)(O)OCCN)OC(=O)CCCCCCCCCCCCCCCCC [DSPE, 1,2-Distearoyl-sn-glycero-3-phosphoethanolamine]
22 | 55 °C | CCCCCCCCCCCCCCCCCC(=O)OCC(COP(=O)(O)OCC(O)CO)OC(=O)CCCCCCCCCCCCCCCCC (racemic) [DSPG, 1,2-Distearoyl-sn-glycero-3-[phospho-rac-(1-glycerol)]]
23 | 67 °C | CCCCCCCCCCCCCCCC(=O)OC[C@H](COP(=O)(O)O)OC(=O)CCCCCCCCCCCCCCC [DPPA, 1,2-Dipalmitoyl-sn-glycero-3-phosphate]
24 | 50 °C | CCCCCCCCCCCCCC(=O)OC[C@H](COP(=O)(O)O)OC(=O)CCCCCCCCCCCCC [DMPA, 1,2-Dimyristoyl-sn-glycero-3-phosphate]
25 | 49 °C | CCCCCCCCCCCCCCCCCC(=O)O[C@H](COC(=O)CCCCCCCCCCCCCCC)COP(=O)([O-])OCC[N+](C)(C)C [1-Palmitoyl-2-stearoyl-sn-glycero-3-phosphocholine]

Same assay, conditions: bulk hydrated state

Row | transition temperature (Tc) | Compound
26 | approximately 55 °C | CCCCCCCCCCCCCCCCCC(=O)OC[C@H](COP(=O)([O-])OCC[N+](C)(C)C)OC(=O)CCCCCCCCCCCCCCCCC [DSPC, 1,2-Distearoyl-sn-glycero-3-phosphocholine]
27 | approximately 41 °C | CCCCCCCCCCCCCCCC(=O)OC[C@H](COP(=O)([O-])OCC[N+](C)(C)C)OC(=O)CCCCCCCCCCCCCCC [DPPC, 1,2-Dipalmitoyl-sn-glycero-3-phosphocholine]

Row | Compound | transition temperature (Tc)
28 | CCCCCCCCCCCCCCCC(=O)OC[C@H](COP(=O)(O)OCCN)OC(=O)CCCCCCCCCCCCCCC [DPPE, 1,2-Dipalmitoyl-sn-glycero-3-phosphoethanolamine] | approximately 63 °C

Same assay, conditions: phospholipid of the formulation

Row | theoretical transition | Compound
29 | 55 °C | CCCCCCCCCCCCCCCCCC(=O)OC[C@H](COP(=O)([O-])OCC[N+](C)(C)C)OC(=O)CCCCCCCCCCCCCCCCC [DSPC, 1,2-Distearoyl-sn-glycero-3-phosphocholine]
30 | 41 °C | CCCCCCCCCCCCCCCC(=O)OC[C@H](COP(=O)([O-])OCC[N+](C)(C)C)OC(=O)CCCCCCCCCCCCCCC [DPPC, 1,2-Dipalmitoyl-sn-glycero-3-phosphocholine]
